Results from patent US20140243335A1, “SUBSTITUTED HYDOXAMIC ACIDS AND USES THEREOF” (Millennium Pharmaceuticals, Inc., priority 2010, published 2014).

biological target: T1, purified human HDAC6 (Homo sapiens, UniProt Q9UBN7); assay: HDAC6 Enzyme Assay; format: biochemical; details: HDAC6 inhibition at a compound concentration of 0.412 μM; read-out: Percent Inhibition at 0.412 μM
T1 construct: purchased BPS Bioscience 5006
T1 sequence (Q9UBN7 1-1215): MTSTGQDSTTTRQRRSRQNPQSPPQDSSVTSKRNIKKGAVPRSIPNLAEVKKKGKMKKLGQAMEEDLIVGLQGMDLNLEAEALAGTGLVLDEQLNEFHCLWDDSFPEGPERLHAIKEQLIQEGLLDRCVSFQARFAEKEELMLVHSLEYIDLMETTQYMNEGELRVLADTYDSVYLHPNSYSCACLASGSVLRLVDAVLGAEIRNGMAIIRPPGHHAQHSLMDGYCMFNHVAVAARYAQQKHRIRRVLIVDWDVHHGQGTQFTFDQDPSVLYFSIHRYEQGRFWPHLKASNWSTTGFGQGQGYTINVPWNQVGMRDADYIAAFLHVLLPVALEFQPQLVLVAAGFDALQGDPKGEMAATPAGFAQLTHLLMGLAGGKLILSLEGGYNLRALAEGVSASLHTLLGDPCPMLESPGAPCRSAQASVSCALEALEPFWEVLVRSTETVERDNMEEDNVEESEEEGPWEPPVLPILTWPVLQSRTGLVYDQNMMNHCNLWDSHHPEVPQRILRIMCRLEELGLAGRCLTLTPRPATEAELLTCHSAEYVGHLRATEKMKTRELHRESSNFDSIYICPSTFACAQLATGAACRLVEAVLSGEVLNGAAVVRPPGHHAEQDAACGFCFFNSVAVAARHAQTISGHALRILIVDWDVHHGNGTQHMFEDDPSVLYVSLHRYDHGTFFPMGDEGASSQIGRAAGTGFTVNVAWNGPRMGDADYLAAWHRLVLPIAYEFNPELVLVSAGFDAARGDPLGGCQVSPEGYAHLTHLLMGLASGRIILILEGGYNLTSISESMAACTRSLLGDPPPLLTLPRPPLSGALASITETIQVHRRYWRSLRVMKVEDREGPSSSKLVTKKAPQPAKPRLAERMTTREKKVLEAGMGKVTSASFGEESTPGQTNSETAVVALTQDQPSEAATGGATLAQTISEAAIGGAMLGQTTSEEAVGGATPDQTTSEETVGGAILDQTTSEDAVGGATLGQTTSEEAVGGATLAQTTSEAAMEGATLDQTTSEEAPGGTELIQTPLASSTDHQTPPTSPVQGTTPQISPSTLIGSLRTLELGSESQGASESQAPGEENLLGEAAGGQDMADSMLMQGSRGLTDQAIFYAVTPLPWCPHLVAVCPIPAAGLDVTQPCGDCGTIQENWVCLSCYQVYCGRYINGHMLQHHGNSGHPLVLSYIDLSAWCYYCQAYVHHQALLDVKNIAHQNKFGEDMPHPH
Procedure: To measure the inhibition of HDAC6 activity, purified human HDAC6 (BPS Bioscience; Cat. No. 5006) is incubated with substrate Ac-Arg-Gly-Lys(Ac)-AMC peptide (Bachem Biosciences; Cat. No. I-1925) for 1 hour at 30° C. in the presence of test compounds or vehicle DMSO control. The reaction is stopped with the HDAC inhibitor trichostatin A (Sigma; Cat. No. T8552) and the amount of Arg-Gly-Lys-AMC generated is quantitated by digestion with trypsin (Sigma; Cat. No. T1426) and subsequent measurement of the amount of AMC released using a fluorescent plate reader (Pherastar; BMG Technologies) set at Ex 340 nm and Em 460 nm. Concentration response curves are generated by calculating the fluorescence increase in test compound-treated samples relative to DMSO-treated controls, and enzyme inhibition (IC50) values are determined from those curves.

inhibition at 0.412 µM [%] | SMILES
73 | CC1(C(=O)NC2CCc3cc(C(=O)NO)ccc3C2)CCNCC1 (centres unmarked) [Compound I-170, N-{6-[(hydroxyamino)carbonyl]-1,2,3,4-tetrahydronaphthalen-2-yl}-4-methylpiperidine-4-carboxamide]
2 | O=C(NO)c1ccc2c(c1)CCCC2NC(=O)c1ccc(-c2ccccc2)cc1 (centres unmarked) [Compound I-34, N-{6-[(hydroxyamino)carbonyl]-1,2,3,4-tetrahydronaphthalen-1-yl}biphenyl-4-carboxamide]
18 | Cn1c(C(=O)N[C@@H]2CCCc3cc(C(=O)NO)ccc32)cc2ccccc21 [Compound I-64, N-{(1R)-6-[(hydroxyamino)carbonyl]-1,2,3,4-tetrahydronaphthalen-1-yl}-1-methyl-1H-indole-2-carboxamide]
80 | O=C(NO)c1ccc2c(c1)CCC(NC(=O)c1csc3ccccc13)C2 (centres unmarked) [Compound I-52, N-{6-[(hydroxyamino)carbonyl]-1,2,3,4-tetrahydronaphthalen-2-yl}-1-benzothiophene-3-carboxamide]
95 | O=C(NO)c1ccc2c(c1)CCC(Oc1ccncc1)C2 (centres unmarked) [Compound I-108, N-hydroxy-6-(pyridin-4-yloxy)-5,6,7,8-tetrahydronaphthalene-2-carboxamide]
77 | O=C(NO)c1ccc2c(c1)CCC(c1ccncc1)C2 (centres unmarked) [Compound I-99, N-hydroxy-6-pyridin-4-yl-5,6,7,8-tetrahydronaphthalene-2-carboxamide]
22 | Cc1nc(C(F)(F)F)c(C(=O)NC2CCCc3cc(C(=O)NO)ccc32)s1 (centres unmarked) [Compound I-7, N-{6-[(hydroxyamino)carbonyl]-1,2,3,4-tetrahydronaphthalen-1-yl}-2-methyl-4-(trifluoromethyl)-1,3-thiazole-5-carboxamide]
82 | Cc1c(C(=O)NC2CCc3cc(C(=O)NO)ccc3C2)cc(-c2ccccc2)n1CCCN1CCOCC1 (centres unmarked) [Compound I-47, N-{6-[(hydroxyamino)carbonyl]-1,2,3,4-tetrahydronaphthalen-2-yl}-2-methyl-1-(3-morpholin-4-ylpropyl)-5-phenyl-1H-pyrrole-3-carboxamide]
11 | CC(=O)N/C(=C\c1ccccc1)C(=O)NC1CCCc2cc(C(=O)NO)ccc21 (centres unmarked) [Compound I-27, 5-{[(2Z)-2-(acetylamino)-3-phenylprop-2-enoyl]amino}-N-hydroxy-5,6,7,8-tetrahydronaphthalene-2-carboxamide]
82 | O=C(NO)c1ccc2c(c1)CC(c1ccc(Cl)cc1)CC2 (centres unmarked) [Compound I-90, 7-(4-chlorophenyl)-N-hydroxy-5,6,7,8-tetrahydronaphthalene-2-carboxamide]
91 | O=C(NO)c1ccc2c(c1)CC(Oc1ccncc1)CC2 (centres unmarked) [Compound I-86, N-hydroxy-7-(pyridin-4-yloxy)-5,6,7,8-tetrahydronaphthalene-2-carboxamide]
94 | Cn1cc(-c2cc(C(=O)NC3CCc4ccc(C(=O)NO)cc4C3)cc(C(F)(F)F)c2)cn1 (centres unmarked) [Compound I-79, N-hydroxy-7-{[3-(1-methyl-1H-pyrazol-4-yl)-5-(trifluoromethyl)benzoyl]amino}-5,6,7,8-tetrahydronaphthalene-2-carboxamide]
89 | O=C(NO)c1ccc2c(c1)CC(c1ccncc1)CC2 (centres unmarked) [Compound I-88, N-hydroxy-7-pyridin-4-yl-5,6,7,8-tetrahydronaphthalene-2-carboxamide]
92 | COc1ccc(C(=O)NC2CCc3ccc(C(=O)NO)cc3C2)cc1 (centres unmarked) [Compound I-77, N-hydroxy-7-[(4-methoxybenzoyl)amino]-5,6,7,8-tetrahydronaphthalene-2-carboxamide]
88 | COc1ccccc1C(=O)NC1CCc2cc(C(=O)NO)ccc2C1 (centres unmarked) [Compound I-122, N-hydroxy-6-[(2-methoxybenzoyl)amino]-5,6,7,8-tetrahydronaphthalene-2-carboxamide]
62 | COc1cccc2cc(C(=O)NC3CCCc4cc(C(=O)NO)ccc43)oc12 (centres unmarked) [Compound I-33, N-{6-[(hydroxyamino)carbonyl]-1,2,3,4-tetrahydronaphthalen-1-yl}-7-methoxy-1-benzofuran-2-carboxamide]
79 | CC(C)(Oc1ccccc1Cl)C(=O)NC1CCCc2cc(C(=O)NO)ccc21 (centres unmarked) [Compound I-14, 5-{[2-(2-chlorophenoxy)-2-methylpropanoyl]amino}-N-hydroxy-5,6,7,8-tetrahydronaphthalene-2-carboxamide]
90 | CC(C)N1CCC(C)(C(=O)Nc2cc(OC3CCc4cc(C(=O)NO)ccc4C3)ccn2)CC1 (centres unmarked) [Compound I-219, N-[4-({6-[(hydroxyamino)carbonyl]-1,2,3,4-tetrahydronaphthalen-2-yl}oxy)pyridin-2-yl]-1-isopropyl-4-methylpiperidine-4-carboxamide]
93 | O=C(NO)c1ccc2c(c1)CC(Oc1ccc(Cl)cc1)CC2 (centres unmarked) [Compound I-91, 7-(4-chlorophenoxy)-N-hydroxy-5,6,7,8-tetrahydronaphthalene-2-carboxamide]
59 | O=C(NO)c1ccc2c(c1)CCC(NC(=O)C13CC4CC(CC(C4)C1)C3)C2 (centres unmarked) [Compound I-57, N-{6-[(hydroxyamino)carbonyl]-1,2,3,4-tetrahydronaphthalen-2-yl}adamantane-1-carboxamide]
53 | O=C(NO)c1ccc2c(c1)CCC(c1ccccc1C(F)(F)F)C2 (centres unmarked) [Compound I-109, N-hydroxy-6-[2-(trifluoromethyl)phenyl]-5,6,7,8-tetrahydronaphthalene-2-carboxamide]
15 | O=C(NO)c1ccc2c(c1)CCCC2NC(=O)c1cc(C(F)(F)F)cc(C(F)(F)F)c1 (centres unmarked) [Compound I-12, 5-{[3,5-bis(trifluoromethyl)benzoyl]amino}-N-hydroxy-5,6,7,8-tetrahydronaphthalene-2-carboxamide]
85 | O=C(NO)c1ccc2c(c1)CCC(NC(=O)c1cnn(-c3ccccc3)c1)C2 (centres unmarked) [Compound I-58, N-{6-[(hydroxyamino)carbonyl]-1,2,3,4-tetrahydronaphthalen-2-yl}-1-phenyl-1H-pyrazole-4-carboxamide]
20 | O=C(Cc1ccc(C(F)(F)F)cc1)NC1CCCc2cc(C(=O)NO)ccc21 (centres unmarked) [Compound I-10, N-hydroxy-5-({[4-(trifluoromethyl)phenyl]acetyl}amino)-5,6,7,8-tetrahydronaphthalene-2-carboxamide]
81 | O=C(NO)c1ccc2c(c1)CC(c1cccc(C(F)(F)F)c1)CC2 (centres unmarked) [Compound I-115, N-hydroxy-7-[3-(trifluoromethyl)phenyl]-5,6,7,8-tetrahydronaphthalene-2-carboxamide]
10 | O=C(NO)c1ccc2c(c1)CCCC2NC(=O)C(C1CCCCC1)C1CCCCC1 (centres unmarked) [Compound I-13, 5-[(dicyclohexylacetyl)amino]-N-hydroxy-5,6,7,8-tetrahydronaphthalene-2-carboxamide]

SMILES | inhibition at 0.412 µM [%]
Cn1cccc1C(=O)N1C2CCC1c1cc(C(=O)NO)ccc12 (centres unmarked) [Compound I-123, N-hydroxy-9-[(1-methyl-1H-pyrrol-2-yl)carbonyl]-1,2,3,4-tetrahydro-1,4-epiminonaphthalene-6-carboxamide] | 90
Cc1nc(-c2ccccn2)sc1C(=O)N1C2CCC1c1cc(C(=O)NO)ccc12 (centres unmarked) [Compound I-206] | 18
O=C(NO)c1ccc2c(c1)C1CCC2N1C(=O)c1ccc(Cl)cc1 (centres unmarked) [Compound I-197, 9-(4-chlorobenzoyl)-N-hydroxy-1,2,3,4-tetrahydro-1,4-epiminonaphthalene-6-carboxamide] | 55
